Read-outs that look alike come from different tables or passages of the source.

The target of assay [1] is T1, TRPA1 (Homo sapiens, UniProt O75762). The following applies: known TRPA1 agonist; read-out: EC50 TRPA1 activation; cited from earlier work.
The subject of assay [2] is mice. Description: insulin sensitivity in mice with chronic ingestion, high fat diet (FIG. 4). The settings on record: mice chronically fed high fat diet containing 0.2 wt % compound vs same diet without. The class given is in vivo.
Assay [3] concerns mice. Description: body weight gain in mice with chronic ingestion, high fat diet (FIG. 3). The settings on record: mice chronically fed high fat diet containing 0.2 wt % compound vs same diet without. The class given is in vivo.
For assay [4], the system named is mice. Kind of assay: gastric emptying after a single ingestion in mice (FIG. 6). The settings on record: single dose vs sham gavage. The class given is in vivo.
Assay [5] has as its system mice. Kind of assay: short term food intake after a single ingestion in mice (FIG. 5). The settings on record: single dose vs sham gavage. The class given is in vivo.
In assay [6] the test system is "empty" cells. Description: in vitro activation on "empty" cells, control (FIG. 7). The class given is cell-based. The settings on record: FIG. 7, downward pointing triangles.
The target in assay [7] is TRPM8 (Homo sapiens, UniProt Q7Z2W7). Description: in vitro activation of hTRPM8 in cells expressing TRP channels (FIG. 7). The assay is classed as cell-based. The arrangement: expressed in transfected cells; an “empty” cell control implies recombinant expression. The following applies: FIG. 7, upward pointing triangles.
For assay [8], the target named is T1, TRPA1. Description: in vitro activation of TRPA1 in cells expressing TRP channels (FIG. 7). The assay is classed as cell-based. The following applies: FIG. 7, circles; read-out: EC-50 TRPA1 activation.
Assay [9] has as its target T2, TRPV1 (Homo sapiens, UniProt Q8NER1).
T2 construct: expressed in transfected cells; an “empty” cell control implies recombinant expression
Kind of assay: in vitro activation of TRPV1 in cells expressing TRP channels (FIG. 7). The class given is cell-based. The following applies: FIG. 7, squares; read-out: EC 50 TRPV1 activation.

T1 sequence (O75762 whole entry, species assumed): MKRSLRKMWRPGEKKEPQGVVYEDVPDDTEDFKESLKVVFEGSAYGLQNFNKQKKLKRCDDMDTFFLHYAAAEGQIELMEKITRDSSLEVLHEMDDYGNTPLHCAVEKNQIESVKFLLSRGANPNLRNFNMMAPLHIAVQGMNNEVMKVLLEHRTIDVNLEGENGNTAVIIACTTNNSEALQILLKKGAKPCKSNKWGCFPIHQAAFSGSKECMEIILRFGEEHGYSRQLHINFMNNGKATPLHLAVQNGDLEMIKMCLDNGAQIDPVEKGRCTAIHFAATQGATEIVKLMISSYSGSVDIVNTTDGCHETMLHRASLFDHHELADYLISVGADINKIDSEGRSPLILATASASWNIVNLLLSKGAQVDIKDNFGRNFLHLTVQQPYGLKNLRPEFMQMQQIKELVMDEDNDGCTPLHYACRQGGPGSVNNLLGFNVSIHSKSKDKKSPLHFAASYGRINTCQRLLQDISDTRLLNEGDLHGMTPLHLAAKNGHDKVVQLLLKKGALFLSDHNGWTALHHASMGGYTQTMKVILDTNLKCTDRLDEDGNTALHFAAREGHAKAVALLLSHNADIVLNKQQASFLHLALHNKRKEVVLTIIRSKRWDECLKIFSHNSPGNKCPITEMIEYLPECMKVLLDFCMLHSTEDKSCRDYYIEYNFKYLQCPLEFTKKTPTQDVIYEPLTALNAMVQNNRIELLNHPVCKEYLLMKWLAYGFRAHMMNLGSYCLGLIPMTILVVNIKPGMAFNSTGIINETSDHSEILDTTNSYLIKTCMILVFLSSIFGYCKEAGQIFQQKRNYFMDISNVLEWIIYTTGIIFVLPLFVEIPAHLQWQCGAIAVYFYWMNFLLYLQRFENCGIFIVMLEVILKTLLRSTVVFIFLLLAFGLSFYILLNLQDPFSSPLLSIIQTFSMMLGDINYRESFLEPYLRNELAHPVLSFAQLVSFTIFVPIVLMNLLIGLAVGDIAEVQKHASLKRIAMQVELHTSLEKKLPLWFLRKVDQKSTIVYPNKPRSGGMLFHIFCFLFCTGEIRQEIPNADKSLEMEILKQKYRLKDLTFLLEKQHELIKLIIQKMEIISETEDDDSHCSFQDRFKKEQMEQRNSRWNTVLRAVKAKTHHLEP
T2 sequence (Q8NER1 whole entry, species assumed): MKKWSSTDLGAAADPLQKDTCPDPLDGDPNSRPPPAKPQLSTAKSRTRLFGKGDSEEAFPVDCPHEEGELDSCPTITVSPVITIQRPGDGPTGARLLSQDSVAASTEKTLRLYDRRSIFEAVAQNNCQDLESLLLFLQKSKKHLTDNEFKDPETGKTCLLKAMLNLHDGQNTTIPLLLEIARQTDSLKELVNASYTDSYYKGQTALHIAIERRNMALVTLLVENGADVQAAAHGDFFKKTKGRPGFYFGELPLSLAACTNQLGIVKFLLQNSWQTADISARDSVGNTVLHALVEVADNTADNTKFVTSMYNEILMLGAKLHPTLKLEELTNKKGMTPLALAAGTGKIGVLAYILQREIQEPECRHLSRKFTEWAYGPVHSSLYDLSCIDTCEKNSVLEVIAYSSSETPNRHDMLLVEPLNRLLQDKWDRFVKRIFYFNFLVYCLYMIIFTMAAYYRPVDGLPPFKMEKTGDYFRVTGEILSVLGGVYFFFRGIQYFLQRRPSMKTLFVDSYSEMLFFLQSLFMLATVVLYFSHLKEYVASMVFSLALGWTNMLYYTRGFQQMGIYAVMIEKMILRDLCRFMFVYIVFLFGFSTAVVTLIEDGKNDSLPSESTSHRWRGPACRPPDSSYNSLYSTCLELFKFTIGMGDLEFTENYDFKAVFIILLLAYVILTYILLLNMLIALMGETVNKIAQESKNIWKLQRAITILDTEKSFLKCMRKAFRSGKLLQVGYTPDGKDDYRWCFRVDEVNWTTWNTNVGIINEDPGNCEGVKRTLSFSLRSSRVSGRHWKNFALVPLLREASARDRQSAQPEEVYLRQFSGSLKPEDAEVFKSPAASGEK
TRPM8, sequence (Q7Z2W7 whole entry): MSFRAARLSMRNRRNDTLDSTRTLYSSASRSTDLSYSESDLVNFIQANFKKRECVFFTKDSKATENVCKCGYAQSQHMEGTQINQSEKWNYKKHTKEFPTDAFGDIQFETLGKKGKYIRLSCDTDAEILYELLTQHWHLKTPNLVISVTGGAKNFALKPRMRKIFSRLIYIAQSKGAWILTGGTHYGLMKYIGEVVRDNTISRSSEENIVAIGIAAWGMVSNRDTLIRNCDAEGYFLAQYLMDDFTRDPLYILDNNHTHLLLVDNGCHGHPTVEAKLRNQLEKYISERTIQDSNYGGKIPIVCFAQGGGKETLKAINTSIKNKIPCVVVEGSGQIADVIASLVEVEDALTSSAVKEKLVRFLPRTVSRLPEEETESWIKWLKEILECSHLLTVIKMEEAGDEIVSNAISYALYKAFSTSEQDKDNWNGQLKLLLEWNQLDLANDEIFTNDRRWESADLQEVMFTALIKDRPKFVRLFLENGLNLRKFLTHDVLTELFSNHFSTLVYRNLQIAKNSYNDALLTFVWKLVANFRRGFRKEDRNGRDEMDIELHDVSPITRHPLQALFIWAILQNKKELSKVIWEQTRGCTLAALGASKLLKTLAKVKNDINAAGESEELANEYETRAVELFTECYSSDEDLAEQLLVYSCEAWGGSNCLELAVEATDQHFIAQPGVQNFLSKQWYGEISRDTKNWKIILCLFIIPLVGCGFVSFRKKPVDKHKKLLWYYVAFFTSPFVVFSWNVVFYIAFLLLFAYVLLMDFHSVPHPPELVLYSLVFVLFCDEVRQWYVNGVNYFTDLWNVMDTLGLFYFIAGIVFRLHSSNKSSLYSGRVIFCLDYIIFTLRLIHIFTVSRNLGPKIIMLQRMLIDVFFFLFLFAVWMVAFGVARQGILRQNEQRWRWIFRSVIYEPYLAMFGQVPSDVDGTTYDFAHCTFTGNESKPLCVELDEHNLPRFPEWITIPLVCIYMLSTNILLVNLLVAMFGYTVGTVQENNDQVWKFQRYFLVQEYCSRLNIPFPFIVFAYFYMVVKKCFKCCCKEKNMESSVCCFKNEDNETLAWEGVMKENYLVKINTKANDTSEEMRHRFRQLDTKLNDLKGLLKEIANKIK

Regarding `O=CC=Cc1ccccc1` [cinnamaldehyde], the EC50 in assay [1] is roughly 60 µM. For the same compound, the insulin sensitivity entry in assay [2] is “improved insulin sensitivity”. Also, in [3], the body weight gain result is reported as “gained less weight”. Besides, the gastric emptying result in [4] is “delayed gastric emptying”. Moreover, in assay [5], the “short term food intake” value is listed as “reduction in short term food intake”.

As to `COc1ccc(C=O)cc1` [p-anisaldehyde], the “activation of "empty" cells” value in assay [6] is “no activation was observed”. In assay [7], the “activation of hTRPM8” value was “no activation was observed”. For the same compound, the EC50 in assay [8] is roughly 100 µM; in assay [9], roughly 500 µM.

The values above are taken from patent publication US9931308B2, “Compositions and methods using P-anisaldehyde” (NESTEC S.A., priority 2013, dated 2018).
